Measured values reported in EP1210336B1, “SUBSTITUTED BENZIMIDAZOLES AS NON-NUCLEOSIDE INHIBITORS OF REVERSE TRANSCRIPTASE” (THE UNITED STATES OF AMERICA, as represented by the …, priority 1999, dated 2001).
Values joined by “and” are separate entries in the source; they are usually repeats but may differ in a detail not shown here. Equal entries are not always repeated. Where two headings read alike, the source gives them in different places.

Legend:
[1] = target: T1, HIV-1 WT RT (Human immunodeficiency virus type 1 group M subtype B, UniProt P03366); test: biochemical
T1 construct: purified RT protein (0.015 mg/mL) was incubated in a 100 µL reaction mixture

[2] = system: WT virus (NL4-3); test: microbe, parasite or virus in culture; format: cell-based, HIV-1
Procedure, shortened: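 CEM-SS cells (5 x 10^3/well) infected with HIV-1 at an MOI giving complete killing by day 6 (e.g., 0.01-0.05), with serial half-log compound dilutions in triplicate. After 6 days at 37°C, viability read by XTT reduction at 450 nm. CIC50 derived from protection against cytopathic killing.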

[3] = system: HIV-1 isolate 4xAZT; test: Cytopathic cell killing assay, cross-resistance profile, infected MT-4 cells; format: cell-based
Excerpt: (§1) The various HIV isolates tested in the Figures are those corresponding to wild-type virus (NL4-3) and the other strains listed by their RT mutations. The three 4xAZT isolates included in the Figures represent AZT drug-resistant variants. For example, the 4xAZT/L100I isolate has five mutations: four mutations confer increased resistance to AZT, and the other mutation is located within the NNRTI binding pocket. TZB and nevir. (nevirapine) are two well-known NNRTIs, included in this experiment for comparison purposes. […]
(§2) In this Example, the antiviral and cellular toxicity of NNRTIs was investigated, using the cytopathic cell killing assay described by Yang (Yang et al., "Characteristics of a Group of Non-nucleoside Reverse Transcriptase Inhibitors with Structural Diversity and Potent Anti-Human Immunodeficiency Virus Activity," Leukemia 9:S75-S85 [1995]). Briefly, in this method cells (e.g., the CEM-SS cell line, available from the NIAID AIDS Research and Reference Program [ARRRP]) were seeded at a density of 5 x 10^3 cells/well, into the wells of a 96-well microtiter plate. The cells were then infected with HIV virus (either mutant or WT), at a multiplicity of infection (MOI) previously determined to provide complete cell killing by 6 days of culture post-infection (e.g., MOI of 0.01-0.05). Each of the HIV isolates was pre-titered to induce equivalent levels of infection based on cell killing or virus production, prior to their use in these assays. A range of test compound concentrations was added to the wells in triplicate (e.g., serial half-log dilutions) to evaluate inhibition of HIV infection. Controls for each assay included drug controls (drug colorimetric control wells), drug cytotoxicity control wells (cells with drug), virus control wells (cells with virus), and cell viability controls (cells only). Positive control drugs (e.g., AZT and ddC) were also run in parallel.
(§3) After six days of incubation at 37°C, cell viability was determined spectrophotometrically at 450 nm for each well, using the metabolic reduction of XTT to a soluble colored formazan. (See, Gartner and Popovic, "Virus Isolation and Production, in Aldovini and Walker (eds.), Techniques in HIV Research, Stockton Press, NY, pp. […] [1991]; and Nara and Fischinger, "Quantitative Infectivity Assay for HIV-1 and HIV-2," Nature 332:469-470 [1988]).
(§4) The in vitro therapeutic index (TI50) was defined as the fold-difference between the EC50 and IC50. The results for the various compounds are included in Figures 8 and 19.

[4] = system: HIV-1 variant A98G; test: as above; format: cell-based
Excerpt: as §1, §2, §3, §4

[5] = system: HIV-1 variant V179D; test: as above; format: cell-based
Excerpt: as §1, §2, §3, §4

[6] = system: HIV-1 variant Y188C; test: as above; format: cell-based
Excerpt: as §1, §2, §3, §4

[7] = system: HIV-1 isolate 4xAZT/Y181C; test: as above; format: cell-based
Excerpt: as §1, §2, §3, §4

[8] = system: HIV-1 variant V106A; test: as above; format: cell-based
Excerpt: as §1, §2, §3, §4

[9] = system: HIV-1 variant K103N; test: as above; format: cell-based; details: for EC50: isolate K103N
Excerpt: as §1, §2, §3, §4

[10] = system: HIV-1 variant K101E; test: as above; format: cell-based; details: isolate K101E
Excerpt: as §1, §2, §3, §4

[11] = system: HIV-1 variant L74V; test: as above; format: cell-based
Excerpt: as §1, §2, §3, §4

[12] = system: HIV-1 variant L100I; test: as above; format: cell-based
Excerpt: as §1, §2, §3, §4

[13] = system: HIV-1 variant V108I; test: as above; format: cell-based
Excerpt: as §1, §2, §3, §4

[14] = system: HIV-1 variant M184l; test: as above; format: cell-based
Excerpt: as §1, §2, §3, §4

[15] = system: HIV-1 variant Y188H; test: as above; format: cell-based
Excerpt: as §1, §2, §3, §4

[16] = system: NL4-3 (WT); test: as above; format: cell-based, HIV-1
Excerpt: as §1, §2, §3, §4

[17] = system: HIV-1 isolate 4xAZT/L100I; test: as above; format: cell-based
Description: The various HIV isolates tested in the Figures are those corresponding to wild-type virus (NL4-3) and the other strains listed by their RT mutations. The three 4xAZT isolates included in the Figures represent AZT drug-resistant variants. […]
as §2, with “Briefly,” for “In this Example, the antiviral and cellular toxicity of NNRTIs was investigated, using the cytopathic cell killing assay described by Yang (Yang et al., "Characteristics of a Group of Non-nucleoside Reverse Transcriptase Inhibitors with Structural Diversity and Potent Anti-Human Immunodeficiency Virus Activity," Leukemia 9:S75-S85 [1995]). Briefly,”
as §3
The in vitro therapeutic index (TI50) was defined as the fold-difference between the EC50 and IC50.

[18] = system: HIV-1 variant Y181C; test: as above; format: cell-based
Excerpt: as §1, §2, §3, §4

[19] = Table 7, HIV-1 WT RT, read-out: IC50
[20] = Table 11, WT RT, read-out: IC50
[21] = Table 7, WT HIV-1 RT, 1 µM drug, read-out: %inhibn (1µM)
[22] = Human immunodeficiency virus 1, NL43, CEM-SS, Table 7, concentration reducing cell killing or virus production by 50%, HIV-1 WT, read-out: EC50
[23] = Human immunodeficiency virus 1, NL43, CEM-SS, Table 11, CEMSS/NL4-3, NRVC = reduction in viral CPE not seen (footnote), read-out: EC50
[24] = Human immunodeficiency virus 1, MT4, Table 10 (values in µM), isolate Y181C
[25] = Human immunodeficiency virus 1, MT4, Table 8, isolate 4XAZT
[26] = Human immunodeficiency virus 1, MT4, Table 8, isolate A9SG
[27] = Human immunodeficiency virus 1, MT4, Table 8, isolate V179D
[28] = Human immunodeficiency virus 1, MT4, Table 8, isolate Y 188C
[29] = Human immunodeficiency virus 1, MT4, Table 8, isolate V 106A
[30] = Human immunodeficiency virus 1, MT4, Table 8
[31] = Human immunodeficiency virus 1, MT4, Table 10 (values in µM)
[32] = Human immunodeficiency virus 1, MT4, Table 8, isolate 1.74V
[33] = Human immunodeficiency virus 1, MT4, Table 8, isolate 1.1001
[34] = Human immunodeficiency virus 1, MT4, Table 10 (values in µM), isolate L1001
[35] = Human immunodeficiency virus 1, MT4, Table 8, isolate V1081
[36] = Human immunodeficiency virus 1, MT4, Table 10 (values in µM), isolate V108l
[37] = Human immunodeficiency virus 1, MT4
[38] = Human immunodeficiency virus 1, NL43, MT4, Table 8, isolate N1.43
[39] = Human immunodeficiency virus 1, NL43, MT4, Table 10 (values in µM), isolate NL4-3 (WT)

Compound	IC50 ([1]; HIV-1 WT RT, read-out: IC50) [nM]	IC50 [1, 19] [nM]	IC50 [1, 20] [nM]	inhibition at 1 µM [1, 21] [%]	EC50 [2, 22] [nM]	EC50 [2, 23] [nM]	EC50 [18, 24] [µM]	EC50 [3, 25] [nM]	EC50 [9, 30] [µM]	EC50 [9, 31] [µM]	EC50 [10, 30] [µM]	EC50 [10, 31] [µM]	EC50 [12, 33] [µM]	EC50 [12, 34] [µM]	EC50 [13, 35] [µM]	EC50 [13, 36] [µM]	EC50 [14, 37] [µM]	EC50 [15, 37] [µM]	EC50 [16, 38] [µM]	EC50 [16, 39] [µM]	further results
4-amino-1-(2,6-difluorobenzyl)-2-(2,6-difluorophenyl)benzimidazole [compound 53]	280	280	280	–	–	–	–	–	–	–	–	–	–	–	–	–	–	–	–	–	%inhibn (1µM) ([1]; Table 7, WT HIV-1 RT, 1 µM drug): 69%; EC50 ([2]; Table 7, concentration reducing cell killing or virus production by 50%, HIV-1 WT, read-out: EC50): 460 nM; EC50 ([2]; Table 11, CEMSS/NL4-3, NRVC = reduction in viral CPE not seen (footnote), read-out: EC50): 460 nM; EC50 ([3]; Table 8, isolate 4XAZT, read-out: EC50): 200 nM; EC50 ([4]; Table 8, isolate A9SG, read-out: EC50): 1500 nM; EC50 ([5]; Table 8, isolate V179D, read-out: EC50): 6000 nM; EC50 ([6]; Table 8, isolate Y 188C, read-out: EC50): 2.7 µM; EC50 ([6]; Table 10 (values in µM), isolate Y188C, read-out: EC50): 2 µM; EC50 ([7]; Table 8, isolate 4XAZT /Y181C, read-out: EC50): > 10000 nM; EC50 ([8]; Table 8, isolate V 106A, read-out: EC50): > 20000 nM; EC50 ([9]; Table 8, read-out: EC50): > 20 µM; EC50 ([10]; Table 8, read-out: EC50): > 20 µM; EC50 ([11]; Table 8, isolate 1.74V, read-out: EC50): 300 nM; EC50 ([12]; Table 8, isolate 1.1001, read-out: EC50): 1.3 µM; EC50 ([13]; Table 8, isolate V1081, read-out: EC50): > 20 µM; EC50 ([14]; Table 10 (values in µM), isolate M184l, read-out: EC50): 0.65 µM; EC50 ([15]; Table 10 (values in µM), isolate Y188H, read-out: EC50): > 50 µM; EC50 ([16]; Table 8, isolate N1.43, read-out: EC50): 0.5 µM; EC50 ([16]; Table 10 (values in µM), isolate NL4-3 (WT), listed as NH2, read-out: EC50): 0.68 µM and 0.4 µM; EC50 ([17]; Table 8, isolate 4XA7T L 1001, read-out: EC50): 300 nM
COc1cccc2c1nc(-c1c(F)cccc1F)n2Cc1c(F)cccc1F [compound 44, 1-(2,6-difluorobenzyl)-2-(2,6-difluorophenyl)-4-methoxylbenzimidazole]	7.3	7.3	7.3	85	4.6	60	0.26	6000	> 20	> 50	3.3	2.82	0.1	0.16	2.5	2.82	0.16	0.26	0.06	0.165	IC50 ([1]; WT RT, read-out: IC50): 7.3 nM; EC50 ([2]; Human immunodeficiency virus 1, NL43, CEM-SS, cytopathic cell killing assay, HIV-1 WT, read-out: EC50): 4.6 nM; EC50 [4, 26]: 300 nM; EC50 [5, 27]: 200 nM; EC50 [6, 28]: 0.3 µM; EC50 [8, 29]: 1400 nM; activity against the K103N mutation / isolate ([9]; result in words, cytopathic cell killing assay): failed to show any activity; EC50 [11, 32]: 80 nM
CCc1cccc2c1nc(-c1c(F)cccc1F)n2Cc1c(F)cccc1F [compound 47, 1-(2,6-difluorobenzyl)-2-(2,6-difluorophenyl)-4-ethylbenzimidazole]	–	–	–	–	–	–	–	–	> 20	> 50	> 20	> 50	0.6	2.48	3	> 50	0.96	13.2	1.1	0.9	IC50 [1]: 17500 nM; inhibition at 1 µM ([1]; read-out: %inhibn (1µM)): 50%; EC50 ([2]; Human immunodeficiency virus 1, NL43, CEM-SS): 820 nM; EC50 [18, 37]: 7.18 µM; EC50 [3, 37]: 1000 nM; EC50 [4, 37]: 8000 nM; EC50 [5, 37]: 1800 nM; EC50 [6, 37]: 5.5 µM; EC50 [7, 37]: > 20000 nM; EC50 [8, 37]: > 20000 nM; EC50 [11, 37]: 1500 nM; EC50 [17, 37]: 600 nM
O=[N+]([O-])c1cccc2c1nc(-c1c(F)cccc1F)n2Cc1c(F)cccc1F [compound 48, 1-(2,6-difluorobenzyl)-2-(2,6-difluorophenyl)-4-nitrobenzimidazole]	–	1880	–	51	2400	–	> 50	–	–	> 50	–	> 50	–	0.83	–	> 50	3.69	> 50	–	3.13	–
Fc1cccc(F)c1Cn1c(-c2c(F)cccc2F)nc2c(Cl)cccc21 [compound 55, 4-chloro-1-(2,6-difluorobenzyl)-2-(2,6-difluorophenyl)benzimidazole]	–	2630	2630	75	440	440	8.4	200	> 20	10.2	> 20	> 20	0.2	0.3	3.6	3.2	–	–	0.1	0.5	inhibition at 1 µM ([1]; Table 6, WT HIV-1 RT, 1 µM drug, average of two experiments done in triplicates, read-out: %Inhibn (1µM)): 75%; EC50 [4, 26]: 5000 nM; EC50 [5, 27]: 800 nM; EC50 [6, 28]: 5.4 µM; EC50 ([6]; Human immunodeficiency virus 1, MT4, Table 10 (values in µM), isolate Y188C): 3.4 µM; EC50 ([7]; Human immunodeficiency virus 1, MT4, Table 8, isolate 4XAZT /Y181C): > 20000 nM; EC50 [8, 29]: > 10000 nM; EC50 [11, 32]: 500 nM; EC50 ([17]; Human immunodeficiency virus 1, MT4, Table 8, isolate 4XA7T L 1001): 200 nM
